Test results as given in paper PMC5601180, “Uptake and metabolism of sulphated steroids by the blood–brain barrier in the adult male rat” (Journal of Neurochemistry, 2017).
Where two headings read alike, the source gives them in different places.

Legend:
[1] = rats, ref Kishimoto and Hoshi (1972), cited from earlier work
[2] = TLC analysis of 3H-steroid metabolites in brain fractions after perfusion; type: in vivo, rat; details: after 0.5 min perfusion with the 3H-steroid sulphate
Source text: For the analysis of ^3H‐steroid metabolites, samples were spotted onto TLC plates for chromatography in the following solvent systems: A (for sulphated steroids), ethyl acetate:ethanol:ammonia (5 : 5 : 1, v/v); B (for free steroids) cyclohexane:n‐butyl acetate (1 : 2, v/v); C (for acetylated steroids), isooctane:ethyl acetate (13 : 7, v/v). Non‐radioactive steroid standards could be visualised by exposure to iodine vapour whereas the ^3H‐steroids were detected by placing the TLC plates in contact with imaging film for subsequent visualisation in a phosphorimager. Additional analysis of the steroid sulphates employed elution from the TLC plate in ammoniated ethanol then drying down and redissolving in sodium acetate buffer, 0.5 M, pH 5.0 for desulphation by incubation with Helix sulphatase (1 mg/mL, 40°C overnight followed by 55°C for 3 h). The resulting free steroids were adsorbed onto a 60 mg Oasis HLB® cartridge and eluted in 5 mL ethyl acetate. This eluate was dried down and analysed by TLC as above for free steroids. Further identification of ^3H‐steroid metabolites was obtained by acetylating them alongside both ^3H‐labelled and non‐radioactive standards. The TLC eluates or standards were dried down and redissolved in 200 μL pyridine. An equal volume of acetic anhydride was then added followed by incubation at 37°C for 2 h. […]

[3] = after intracerebral injection, rats; ref Asaba et al. (2000); cited from earlier work
[4] = Rat brain perfusion in situ: uptake of 3H-steroid sulphates and markers (Vd, Kin, PS); details: for K in, unidirectional transfer coefficient: 0.5 min perfusion, corrected for vascular space (sucrose Vd), n ≥ 3
Protocol: Each animal also received intraperitoneal heparin, 10 000 U/kg. Body temperature was maintained at 37°C with a heating pad.
For analysis of free and sulphated steroids and for steryl‐sulfate sulfohydrolase (EC 3.1.6.2; trivial name steroid sulphatase) assays, both hemispheres were perfused, via right and left common carotid arteries, and 0.8 mM MgCl2 replaced 0.8 mM MgSO4 in the solution. The perfusate was delivered at a constant rate of 6 mL/min for hemi‐perfusions and 12 mL/min for bilateral perfusions, maintaining a net perfusion pressure of 40–70 mm Hg.
The remaining tissue of the right hemisphere was homogenised and samples (~50 mg) taken in triplicate (“remainder samples”). Triplicate samples of the perfusate were also taken. Samples were weighed into vials and dissolved (48 h at 20°C) in 0.5 mL Solvable before addition of 4.5 mL Optiphase 2 scintillation fluid for counting of radioactivity.
Brain uptake was calculated as a volume of distribution V d, where V d (μL/g) = (dpm/g tissue)/(dpm/μL perfusate). The unidirectional transfer coefficients, (K in, μL/g/min), for DHEAS and for PregS were calculated from the V d at 0.5 min, corrected with the V d for the vascular space marker sucrose.

[5] = Bilateral brain perfusion, capillary depletion and separation of free and sulphated 3H-steroids; type: in vivo, rat
Protocol: Brains were bilaterally perfused for 0.5 min with ^3H‐labelled DHEAS 1.25 or 6.0 μCi (0.046 or 0.221 MBq)/mL (13.5 or 64.9 nM) or PregS 1.0 μCi (0.037 MBq)/mL (47.6 nM). The hindbrain was removed and each hemisphere homogenised in 2 vols (w/v) buffer containing (in mM) NaCl 141, KCl 4, NaH2PO4 1, CaCl2 2.8, MgCl2 1, HEPES 10, D‐glucose 10, pH 7.4. A sample of the homogenate of the whole right hemisphere was removed for scintillation counting, and the remainder retained as the whole brain homogenate.
The left hemisphere homogenate was separated into capillary‐enriched and capillary‐depleted fractions by the method of Triguero et al. (1990). For this, an equal volume of 26% dextran (w/w) solution was added to the homogenate and a sample taken for liquid scintillation counting before centrifugation at 5300 g for 15 min at 4°C. The upper layer was taken as the capillary‐depleted fraction and the pellet as the capillary‐enriched fraction.
Before extraction, fractions were sonicated in 5 vols ice‐cold, 5 mM potassium phosphate buffer, pH 7. Small portions (150 μL) were removed for measurement of protein content (Bradford 1976) and total radioactivity. For the latter, homogenate was solubilised (15 min, 20°C) in 10 vols Soluene then bleached (2 h, 50°C) with 0.3 vol hydrogen peroxide before counting in Ecoscint H containing Triton X‐100 (6% v/v), glacial acetic acid (0.6% v/v) and butylated hydroxytoluene (2% w/v). The remainder of each homogenate was extracted as described in detail elsewhere (Ebner et al. 2006; Sujkovic et al. 2009), to give free steroid and steroid sulphate fractions. First, homogenates were extracted into 20 vols ethanol containing acetic acid 3% (v/v). After centrifugation (28 000 g, 30 min, 25°C) to remove denatured protein, the extracts were delipidated by partitioning three times against 10 vols isooctane. Extracts were dried down under vacuum and redissolved in ethanol, which was then diluted to 20% v/v in 5 mM potassium phosphate buffer, pH 7.0 at a total volume of 20 ml. Separation of free and sulphated steroids was achieved by passage through a 60 mg Oasis MAX® cartridge. After washing the cartridge with 5 mL ethanol at 20% v/v in ammonium acetate (20 mM, pH 7), free steroids were eluted in 4 mL ethyl acetate. Passage of 20 mL ethanol at 60% v/v in formate/pyridine buffer (20 mM, pH 3) eluted any steroid glucuronides present. Finally, steroid sulphates were eluted in 30 mL 60% v/v ethanol containing ammonium carbonate 1% (w/v). To measure the radioactivity of each fraction, portions were dried down and then redissolved in Ecoscint H for counting. The remainder was dried down, redissolved in ethanol 96% v/v and stored at −20°C for subsequent analysis by TLC.

[6] = after 0.5 min bilateral perfusion, mean ± SEM, n = 5

C[C@]12CC[C@H](OS(=O)(=O)O)CC1=CCC1C2CC[C@]2(C)C(=O)CCC12 (some centres unmarked) [DHEAS, dehydroepiandrosterone sulphate]
radiolabel accumulating as free steroid in the brain ([1]; intracardiac injection): ~50%
radiolabel accumulating as free steroid in the brain ([1]; intracerebral injection): 5%
metabolism in brain fractions [2]: underwent 17‐hydroxylation to form androstenediol in both the steroid sulphate and the free steroid fractions, with some additional formation of androstenedione in the latter
3H-label appearing in the jugular vein as unchanged steroid sulphate [3]: 90%
K in, unidirectional transfer coefficient ([4]; Cerebellum, mean ± SEM): 38.6 ± 7.0 µL/g/min
K in, unidirectional transfer coefficient ([4]; Hippocampus, mean ± SEM): 45.4 ± 3.4 µL/g/min
K in, unidirectional transfer coefficient ([4]; Hypothalamus, mean ± SEM): 57.7 ± 2.7 µL/g/min
K in, unidirectional transfer coefficient ([4]; Medulla, mean ± SEM): 39.4 ± 8.9 µL/g/min
position of log PS in plot against cLog Poct relative to the line for passively permeating compounds ([4]; PS from K in as slope of Vd against time 0.25 to 0.5 min, implies net efflux): below the 95% confidence limits of the line of best fit for passively permeating compounds
K in, unidirectional transfer coefficient ([4]; Parietal cortex, mean ± SEM): 38.4 ± 4.5 µL/g/min
K in, unidirectional transfer coefficient ([4]; Remainder of brain tissue, mean ± SEM): 44.8 ± 4.1 µL/g/min
K in, unidirectional transfer coefficient ([4]; Striatum, mean ± SEM): 47.2 ± 3.9 µL/g/min
K in, unidirectional transfer coefficient ([4]; Sup. colliculus, mean ± SEM): 63.5 ± 6.7 µL/g/min
V d, corrected for sucrose space (vascular volume), control ([4]; brain uptake after 0.5 min perfusion without inhibitors (control of Fig. 3), mean ± SEM, n = 3): 32.47 ± 2.03 µL/g
radioactivity in capillary fraction [5, 6]: 3451 ± 511 dpm/mg protein
radioactivity in parenchyma fraction [5, 6]: 3279 ± 388 dpm/mg protein
recovery of total homogenate radioactivity into capillary fraction [5, 6]: 2.2 ± 0.3%
recovery of total homogenate radioactivity into parenchyma fraction [5, 6]: 25.7 ± 2.3%
percentage of 3H-label as free steroid, parenchyma versus capillary ([5]; after 0.5 min perfusion, Fig. 4, p < 0.02): significantly higher percentage of the free steroid in the parenchyma than in the brain capillaries
desulphation on uptake into brain ([5]; within 0.5 min of uptake, brain perfusion in situ): > 50%
